Data published in patent US20200163984A1, “USE OF ISOVALERYL SPIRAMYCIN I, II AND/OR III IN MANUFACTURING MEDICAMENT FOR TREATING AND/OR PREVENTING TUMOR, AND MEDICAMENT” (SHENYANG FUYANG PHARMACEUTICAL TECHNOLOGY CO., LTD., priority 2017, published 2020).

Assays:
[1] = system: transplanted tumor of human esophageal cancer cell TE-1; assay: TE-1 transplanted tumor in nude mice; conditions: TE-1; 30 mg/kg i.g. 30 days
Description: (§1) Then cell concentration was adjusted to 1×10^7/ml with matrigel, then each nude mouse was inoculated subcutaneously with 0.2 ml of cells at its right armpit and recorded as the first day of inoculation. When the tumor grows to be greater than or equal to 100 mm^3, the mice were randomly divided into 11 groups with 6 mice in each group: a model group, a cyclophosphamide group, isovaleryl spiramycin I groups with doses of 25, 50 and 100 mg/kg, isovaleryl spiramycin II groups with doses of 25, 50 and 100 mg/kg, and isovaleryl spiramycin III groups with doses of 25, 50 and 100 mg/kg. Each group was continuously administered intragastrically for 30 days with a dose of 20 ml/kg. The mice were sacrificed the next day after drug withdrawal and the indicators were tested. The long diameter and short diameter of the tumor, and the body weight of each mouse were recorded every 3 days from drug administration to nude mouse sacrifice.
(§2) The body weight of the nude mice and the long diameter (a) and short diameter (b) of the transplanted tumor were measured every 3 days, and the tumor volume (v), relative tumor volume (RTV) and relative tumor proliferation rate (T/C) are calculated respectively according to the following formulas, wherein V=a×b^2/2; RTV=V/V0 (V0 is the tumor volume before administration, V is the tumor volume before sacrifice), and T/C (%)=treatment group RTV/model control group RTV×100%.
(§3) Each mouse was weighed and sacrificed. After the tumor was completely stripped off from the body of the mouse, the non-tumor tissues such as blood stains and fat were removed to weigh the tumor and calculate the tumor growth inhibition rate. The average tumor weight of each group of mice is used as an indicator of efficacy. Tumor growth inhibition rate (%)=(1−the average tumor weight of the treatment group/the average tumor weight of the model group)×100%.

[2] = system: transplanted tumor of human breast cancer cell MDA-MB-231; assay: MDA-MB-231 transplanted tumor in nude mice; conditions: MDA-MB-231; 30 mg/kg i.g. 30 days
Description: as §1, §2, §3

[3] = system: transplanted tumor of human hepatoma cell HepG-2; assay: HepG-2 transplanted tumor in nude mice; conditions: HepG-2 nude mice, 30 mg/kg
Description: as §1, §2, §3

[4] = system: transplanted tumor of human lymphoma cell U937; assay: U937 transplanted tumor in nude mice; conditions: U937 nude mice, 30 mg/kg
Description: as §1, with “U937 cells in a logarithmic growth phase were taken and subjected to a trypan blue exclusion experiment showing that the cell viability was more than 95%, then the cells were subjected to trypsinization, centrifugation, and supernatant removal. Then” for “Then”
as §2, §3

O=P1(N(CCCl)CCCl)NCCCO1 (centres unmarked) [Cyclophosphamide, cyclophosphamide, reference compound]
Body Weight (d 1) [1]: 23.18 ± 1.22 g | Body Weight (d 30) [1]: 20.57 ± 1.14 g | Inhibition Rate (tumor growth inhibition rate) [1]: 71.87% | Relative Tumor Proliferation Rate (T/C) [1]: 30.18% | Relative Tumor Volume (RTV) [1]: 4.00 ± 1.91 | Tumor Volume (d 1) [1]: 269.96 ± 92.18 mm3 | Tumor Volume (d 30) [1]: 886.22 ± 271.22 mm3 | Tumor Weight [1]: 0.44 ± 0.18 g | Body Weight (d 1) [2]: 21.65 ± 1.50 g | Body Weight (d 30) [2]: 19.26 ± 1.49 g | Inhibition Rate (tumor growth inhibition rate) [2]: 70.54% | Relative Tumor Proliferation Rate (T/C) [2]: 37.73% | Relative Tumor Volume (RTV) [2]: 5.89 ± 2.84 | Tumor Volume (d 1) [2]: 116.90 ± 7.18 mm3 | Tumor Volume (d 30) [2]: 691.84 ± 337.21 mm3 | Tumor Weight [2]: 0.38 ± 0.27 g | Inhibition Rate (%) [3]: 71.04% | Relative Tumor Proliferation Rate (T/C) [3]: 39.27% | Relative Tumor Volume (RTV) [3]: 6.58 ± 2.18 | Tumor Weight [3]: 0.07 ± 0.38 g | Body Weight (g) (d1) ([3]; d1): 21.89 ± 1.84 g | Tumor Volume (mm3) (d 1) ([3]; d1): 119.66 ± 7.65 mm3 | Body Weight (g) (d30) ([3]; d30): 19.67 ± 1.49 g | Tumor Volume (mm3) (d30) ([3]; d30): 792.56 ± 287.31 mm3 | Inhibition Rate (%) [4]: 65.11% | Relative Tumor Proliferation Rate (T/C) [4]: 35.44% | Relative Tumor Volume (RTV) [4]: 6.04 ± 1.26 | Tumor Weight [4]: 0.68 ± 0.12 g | Body Weight (g) (d1) ([4]; d1): 21.00 ± 0.72 g | Tumor Volume (mm3) (d 1) ([4]; d1): 125.00 ± 32.61 mm3 | Body Weight (g) (d30) ([4]; d30): 19.72 ± 0.95 g | Tumor Volume (mm3) (d30) ([4]; d30): 722.72 ± 55.32 mm3
